Laboratory results reported in paper PMC12410356 (International Journal for Parasitology: Drugs and Drug …, 2025).

Assays:
[1] = tested on: E. multilocularis metacestode vesicles; test: Phosphoglucose isomerase (PGI) release assay (damage-marker release) on metacestode vesicles; assay type: cell-based, Echinococcus multilocularis; settings: 10 μM; for PGI d5 (relative PGI release): 5 days; for PGI d12 (relative PGI release): 12 days
Experimental: In order to quantify the drug-induced damage on whole metacestode vesicles, phosphoglucose isomerase (PGI) assay was performed as described previously ([Stadelmann et al., 2010]) with few adaptations published recently ([Kaethner et al., 2023]). In short, 8 to 12 weeks-old metacestode vesicles were purified using 2 % sucrose with subsequent washes in PBS. Metacestode vesicles were diluted in two volumes of DMEM without phenol red containing penicillin (100 U/mL) and streptomycin (100 μg/mL). […] 0.1 % DMSO was used as a negative solvent control and 0.1 % Triton X-100 was used as a positive total damage control. Metacestode vesicles were incubated under a humid, 5 % CO2 atmosphere at 37 °C. After five and twelve days, supernatant was taken and pictures were made using a Nikon SMZ18 stereo microscope (Nikon, Basel, Switzerland) at 7.5 × magnification. PGI activity in the supernatants was measured on a HIDEX Sense microplate reader (Hidex, Turku, Finland). The corresponding values of the DMSO controls were subtracted from the values of the compounds and then PGI activity was calculated relative to 0.1 % Triton X-100. […] IC50 values were calculated applying the 3 parameter Weibull type 1 in R for each of the three independent experiments ([Ritler et al., 2020]).

[2] = tested on: E. multilocularis metacestode vesicles; test: Metacestode vesicle viability assay (ATP, CellTiter-Glo); assay type: cell-based, Echinococcus multilocularis
Experimental: Viability was assessed after 12 days using the same metacestode vesicles as for the PGI release assay. Triton X-100 was added to each well to a final concentration of 0.1 %. Subsequently the metacestode vesicles were broken mechanically and 50 μL of the supernatant was mixed with 50 μL of CellTiter-Glo® buffer (Promega, Dübendorf, Switzerland). Measurements were performed on a HIDEX Sense microplate reader.

[3] = overview screen, singlets, relative to 0.1 % Triton X-100, DMSO subtracted
[4] = overview screen, 10 μM, singlets, 12 days, relative to DMSO control
[5] = confirmation screen, triplicates, mean
[6] = confirmation screen, 10 μM, triplicates, mean, 12 days

SMILES | PGI d5 (relative PGI release) [1, 3] [%] | PGI d12 (relative PGI release) [1, 3] [%] | Viability d12 (relative viability) [2, 4] [%] | PGI d5 (relative PGI release) [1, 5] [%] | PGI d12 (relative PGI release) [1, 5] [%] | Viability d12 (relative viability) [2, 6] [%] | Viability d12 (relative viability) ([2]; 10 µM) [%]
COc1cc(Cc2cnc(N)nc2N)cc(OC)c1OC [MMV000028] | -3.0237 | -24.4435 | 71.724 | – | – | – | –
COc1cc(C)c2c(Oc3cccc(C(F)(F)F)c3)c(OC)cc(NC(C)CCCN)c2n1.O=C(O)CCC(=O)O (stereo not drawn) [MMV000043] | 8.8572 | -12.8411 | 100.948 | – | – | – | –
CCC[C@@H]1C[C@@H](C(=O)N[C@@H]([C@H]2O[C@H](SC)[C@H](O)[C@@H](O)[C@H]2O)[C@H](C)Cl)N(C)C1.Cl [MMV000051] | 15.4885 | 58.7211 | 23.7506 | 0.38 | -0.19 | 61.99 | –
CONC(=N)c1ccc(-c2ccc(-c3ccc(C(=N)NOC)cc3)o2)cc1 [MMV000059] | -1.411 | -24.9567 | 226.694 | – | – | – | –
CCN(CC)CCn1c(=N)n(CC(O)COc2ccc(Cl)cc2Cl)c2ccccc21 (stereo not drawn) [MMV000725] | -2.18 | -13.7901 | 72.9764 | – | – | – | –
O=C(c1ccccc1)N1CCN(c2ccccc2NC(=O)C(Cl)(Cl)Cl)CC1 [MMV001014] | 0.3132 | -4.23 | 104.308 | – | – | – | –
Cc1c(OCC(F)(F)F)ccnc1C[S+]([O-])c1nc2ccccc2[nH]1 (stereo not drawn) [MMV001438] | 1.578 | -2.884 | 96.7343 | – | – | – | –
CCCCc1ccc(C(=O)O)nc1 [MMV001726] | -0.06574 | -20.229 | 162.188 | – | – | – | –
CC1=C(/C=C/C(C)=C/C=C/C(C)=C/C(=O)Nc2ccc(O)cc2)C(C)(C)CCC1 [MMV001793] | 0.1304 | -19.3598 | 54.0144 | – | – | – | –
Clc1ccc(Cn2c(CN3CCCC3)nc3ccccc32)cc1 [MMV002015] | -0.9034 | -18.1648 | – | – | – | – | 85.4319
NNC(=O)c1ccncc1 [MMV002169] | 1.814 | -1 | 113.159 | – | – | – | –
Cc1onc(-c2ccccc2)c1-c1ccc(S(N)(=O)=O)cc1 [MMV002260] | 0.1005 | -4.614 | 84.2251 | – | – | – | –
OC(Cn1cncn1)(Cn1cncn1)c1ccc(F)cc1F [MMV002337] | -1.63 | -24.335 | 76.1493 | – | – | – | –
CCn1cc(C(=O)O)c(=O)c2cc(F)c(N3CCNC(C)C3)c(F)c21.Cl (stereo not drawn) [MMV002350] | 0.8503 | 0.3517 | – | – | – | – | 92.559
C[C@@H]1O[C@@H]1P(=O)(O)O [MMV002354] | 4.505 | -11.1824 | 22.2102 | – | – | – | –
NC[C@H]1O[C@H](O[C@H]2[C@H](O)[C@@H](O[C@H]3O[C@H](CO)[C@@H](O)[C@H](N)[C@H]3O)[C@H](N)C[C@@H]2N)[C@H](N)C[C@@H]1O [MMV002459] | -1.087 | -12.65 | 35.1523 | – | – | – | –
CSc1ccc2c(c1)C(N1CCN(C)CC1)Cc1ccccc1S2 (stereo not drawn) [MMV002505] | 0.4968 | -0.02837 | 82.0463 | – | – | – | –
CC[C@@H]1C(=O)OC[C@@H]1Cc1cncn1C.Cl [MMV002516] | -2.121 | -7.265 | 84.666 | – | – | – | –
CO/N=C(\C(=O)N[C@@H]1C(=O)N2C(C(=O)OCOC(=O)C(C)(C)C)=C(/C=C\c3scnc3C)CS[C@H]12)c1csc(N)n1 [MMV002560] | -2.539 | -11.7788 | 19.8723 | – | – | – | –
O=C1CCC(N2C(=O)c3ccccc3C2=O)C(=O)N1 (stereo not drawn) [MMV002612] | -1.046 | -2.884 | – | – | – | – | 99.2866

SMILES | PGI d5 (relative PGI release) [1, 3] [%] | PGI d12 (relative PGI release) [1, 3] [%] | Viability d12 (relative viability) [2, 4] [%] | PGI d5 (relative PGI release) [1, 5] [%] | PGI d12 (relative PGI release) [1, 5] [%] | Viability d12 (relative viability) [2, 6] [%] | Viability d12 (relative viability) ([2]; 10 µM) [%]
NCc1ccc(S(N)(=O)=O)cc1 [MMV002665] | 0.8805 | -5.499 | – | – | – | – | 140.59
C[N+]1(C)CCCC(OC(=O)C(O)(c2ccccc2)c2ccccc2)C1 (stereo not drawn) [MMV002676] | -4.414 | -4.73 | 80.9524 | – | – | – | –
Cc1cc(C2CCCCC2)n(O)c(=O)c1 [MMV002731] | -0.5492 | -23.4097 | – | – | – | – | 50.1817
Cc1onc(-c2ccccc2Cl)c1C(=O)N[C@@H]1C(=O)N2[C@@H]1SC(C)(C)[C@@H]2C(=O)O [MMV002740] | -1.463 | -24.5158 | – | – | – | – | 55.1081
COc1ccc2c(c1OC)C(=O)OC2C1c2c(cc3c(c2OC)OCO3)CCN1C (stereo not drawn) [MMV002780] | -0.3679 | -3.872 | 419.126 | – | – | – | –
C[C@H]1CC[C@]2(NC1)O[C@H]1C[C@H]3[C@@H]4CC[C@H]5C[C@@H](O)CC[C@]5(C)[C@H]4CC[C@]3(C)[C@H]1[C@@H]2C.Cl [MMV003069] | -0.8739 | -0.2652 | 243.729 | – | – | – | –
CC[C@H]1OC(=O)[C@H](C)[C@@H](O[C@H]2C[C@@](C)(OC)[C@@H](O)[C@H](C)O2)[C@H](C)[C@@H](O[C@@H]2O[C@H](C)C[C@H](N(C)C)[C@H]2O)[C@](C)(O)C[C@@H](C)C(=O)[C@H](C)[C@@H](O)[C@]1(C)O [MMV003137] | 1.971 | -21.4001 | 63.8752 | – | – | – | –
COC(=O)Nc1nc2cc(Sc3ccccc3)ccc2[nH]1 [MMV003143] | 2.636 | 9.38 | 13.6935 | – | – | – | –
NC(=O)c1cnccn1 [MMV003249] | 1.909 | -3.346 | 123.464 | – | – | – | –
Cc1oncc1C(=O)Nc1ccc(C(F)(F)F)cc1 [MMV003291] | 0.3849 | -17.479 | – | – | – | – | 99.9529
CC#C[C@]1(O)CC[C@H]2[C@@H]3CCC4=CC(=O)CCC4=C3[C@@H](c3ccc(N(C)C)cc3)C[C@@]21C [MMV003297] | -0.9731 | -0.6398 | – | – | – | – | 92.6641
COc1ccc(C2CNC(=O)C2)cc1OC1CCCC1 (stereo not drawn) [MMV003738] | -0.5058 | -19.6179 | 180.575 | – | – | – | –
Nc1nc(=O)[nH]cc1F [MMV004508] | -1.885 | -20.764 | – | – | – | – | 219.514
Cc1[nH]c2ccccc2c1CCNCc1ccc(/C=C/C(=O)NO)cc1 [MMV010036] | 1.148 | -1.326 | 57.5391 | – | – | – | –
COc1ccc2nc(-c3ccccc3)cc(O)c2c1 [MMV011565] | 5.903 | 49.0323 | 19.5448 | 0.13 | -0.59 | 78.39 | –
Oc1c(C(Nc2nc3ccccc3s2)c2ccc(OC(F)F)cc2)ccc2cccnc12 (stereo not drawn) [MMV019724] | 0.06264 | 0.4013 | 220.792 | – | – | – | –
CN1CCN(c2ccc3[nH]c(-c4ccc5[nH]c(-c6ccc(O)cc6)nc5c4)nc3c2)CC1 [MMV020752] | -2.507 | 7.527 | – | – | – | – | 69.6365
Nc1nc(N)c2c(Sc3ccccc3)cccc2n1 [MMV021759] | -5.79 | -12.5973 | 37.4067 | – | – | – | –
Cc1nc(Nc2ccc(F)cc2)nc(N2CCc3ccccc3C2C)c1C (stereo not drawn) [MMV030787] | -1.879 | -7.918 | 56.6945 | – | – | – | –
